Source: paper PMC2762027, “Potencies of Cocaine Methiodide on Major Cocaine Targets in Mice” (PLoS ONE, 2009)
Entries after “also recorded” stand apart in the source; their conditions may differ. Like-named read-outs stand apart in the source and are kept apart here.

Assays:
[1] = biological target: mouse DAT (Mus musculus, UniProt Q61327); assay: Dopamine uptake into HeLa cells transiently transfected with mDAT; type: cell-based
[2] = test system: DRG neuron Na+ channels; assay: Whole-cell voltage clamp recording of sodium channel currents in dorsal root ganglion neurons; type: cell-based, mouse; conditions: for IC50: isolated mouse DRG neurons, whole-cell patch clamp, held at -70 mV, read-out: IC50, inhibition of DRG neuron Na+ channels
Experimental: Dorsal root ganglion (DRG) neurons (T1–T10) from adult male C57B6 mice (aged 6–8 weeks) were isolated as per Malin et al. Briefly, ganglia were dissected under stereo microscope and washed in Ca^2+/Mg^2+-free Hank's Buffered Salt Solution (HBSS). DRGs were digested enzymatically, first with papain and then collagenase II and dispase II, each for 10 min at 37°C. Digested DRGs were then triturated in culture media (F-12 supplemented with 10% FBS and 5 mg/ml penicillin/streptomycin) by a fire-polished Pasteur pipette until solution becomes cloudy. Isolated DRG neurons were plated on poly-ornithine coated glass cover slips and maintained in a 37°C, 5% CO2 incubator. Individual DRG neurons were recorded after overnight culture.
Plated coverslips were centered in a perfusion chamber filled with extracellular solution (ECS) containing (in mM): 140 NaCl, 5 KCl, 2 CaCl2, 1 MgCl2, 10 glucose, 10 HEPES, pH 7.4. Cocaine and CM were dissolved in ECS and delivered via a pressure-driven perfusion system (SmartSquirt 8, AutoMate Scientific) with the tip positioned so the DRG neuron being recorded was fully within the direct stream of perfusate. Recording pipettes were pulled from micropipette glass (World Precision Instruments, Sarasota FL) to 2–4 MΩ when filled with an intracellular solution containing (in mM): 140 […], 1 CaCl2, 2 MgCl2, 11 EGTA, 10 HEPES, 2 Mg2ATP, pH 7.2). Whole-cell recordings were made using an EPC10 amplifier and the PatchMaster 2.2.0 software (both from HEKA Electronik, Germany). As soon as the whole-cell configuration was established, fast and slow capacitances were cancelled and the holding potential (Vh) was set to -70 mV. A step protocol ([…] from −70 mV to 10 mV with 5 mV increment for each step) was applied to determine the testing voltage (Vt) that generated the maximal inward current in the following experiment. […] Only one cell per cover slip was recorded to avoid possible drug contamination of other cells. […]
A range of drug concentrations, starting from low to high, were tested for each DRG neuron. The sodium channel currents were recorded 30 s before the drug application, during the 30 s drug application, and 30–60 s after drug washout by perfusion with ECS. For each set of tests, current amplitude was measured by subtracting the baseline value from the peak current. […] The currents measured after the drug washout were used to confirm the complete recovery before testing the next drug concentration.
The IC50 values were determined by nonlinear regression analyses of experimental data using GraphPad Prism 3.0 (San Diego, CA). IC50 values presented are averages ± standard error of means (SEM) calculated from 3 independent uptake experiments or recordings of 4 different DRG neurons. […]

[3] = biological target: mouse NET (Mus musculus, UniProt O55192); assay: Norepinephrine uptake into HeLa cells transiently transfected with mNET; type: cell-based
[4] = biological target: mouse SERT (Mus musculus, UniProt Q60857); assay: Serotonin uptake into HeLa cells transiently transfected with mSERT; type: cell-based
[5] = biological target: T1, dopamine uptake by striatal synaptosomes (Mus musculus, UniProt Q61327); assay: Dopamine reuptake into striatal synaptosomes; type: biochemical
T1 construct: C57B6 mice (aged 6–8 weeks) were decapitated and striatum were dissected from both sides of the brain; from tissue; host or cells: striatal synaptosomes of C57B6 mice
Experimental: All animal work was conducted in adherence to OSU IACUC approved protocols and guidelines for animal welfare. C57B6 mice (aged 6–8 weeks) were decapitated and striatum were dissected from both sides of the brain and stored on ice. The tissues were placed in ice-cold Krebs'-Ringer's solution buffer (KRB) (in mM: 125 NaCl, 1.2 KCl, 1.2 MgSO4, 1.2 CaCl2, 22 NaHCO3, 1 NaH2PO4, and 10 glucose, adjusted to pH 7.4) with an additional 0.32 M sucrose. Tissue samples were homogenized by using a glass homogenizing tube and with a Teflon-coated pestle. The samples were centrifuged for 10 min at 1,000xg. Supernatant was collected and the debris pellet was discarded. Supernatant was centrifuged for 15 min at 16,000x g. […] Amounts of [^3H]-labeled dopamine accumulated were quantitated by liquid-scintillation counting. All experiments were performed in triplicates. Synaptosomes with the highest dose of inhibitor were used as background controls and radioactivity associated with these wells were subtracted from the total scintillation counts of all wells.
The IC50 values were determined by nonlinear regression analyses of experimental data using GraphPad Prism 3.0 (San Diego, CA). IC50 values presented are averages ± standard error of means (SEM) calculated from 3 independent uptake experiments or recordings of 4 different DRG neurons. Statistical analyses for the difference between the IC50 values of the two drugs were performed by Student's paired t-test using SPSS 17.0 (Chicago, IL).

[6] = test system: sodium channels; design: method as in PMID 16406254; conditions: cited from earlier work

mouse SERT, sequence (Q60857 whole entry): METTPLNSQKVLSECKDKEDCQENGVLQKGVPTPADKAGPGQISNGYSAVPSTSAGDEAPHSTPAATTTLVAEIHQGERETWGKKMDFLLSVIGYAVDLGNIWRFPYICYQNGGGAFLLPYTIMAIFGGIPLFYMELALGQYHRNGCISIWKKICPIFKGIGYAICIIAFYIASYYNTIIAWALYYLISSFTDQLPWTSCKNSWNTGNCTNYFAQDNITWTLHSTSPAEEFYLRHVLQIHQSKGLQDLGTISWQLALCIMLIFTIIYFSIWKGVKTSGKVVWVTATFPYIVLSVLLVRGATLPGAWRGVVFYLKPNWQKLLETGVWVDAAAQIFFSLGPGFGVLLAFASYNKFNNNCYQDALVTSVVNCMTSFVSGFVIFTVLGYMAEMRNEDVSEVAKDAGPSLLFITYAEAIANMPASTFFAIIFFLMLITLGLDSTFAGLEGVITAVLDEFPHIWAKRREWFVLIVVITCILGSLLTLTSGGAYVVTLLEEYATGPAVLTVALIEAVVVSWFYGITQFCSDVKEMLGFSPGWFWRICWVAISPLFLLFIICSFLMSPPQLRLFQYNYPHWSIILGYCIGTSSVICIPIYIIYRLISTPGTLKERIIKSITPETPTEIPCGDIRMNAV
mouse NET, sequence (O55192 whole entry): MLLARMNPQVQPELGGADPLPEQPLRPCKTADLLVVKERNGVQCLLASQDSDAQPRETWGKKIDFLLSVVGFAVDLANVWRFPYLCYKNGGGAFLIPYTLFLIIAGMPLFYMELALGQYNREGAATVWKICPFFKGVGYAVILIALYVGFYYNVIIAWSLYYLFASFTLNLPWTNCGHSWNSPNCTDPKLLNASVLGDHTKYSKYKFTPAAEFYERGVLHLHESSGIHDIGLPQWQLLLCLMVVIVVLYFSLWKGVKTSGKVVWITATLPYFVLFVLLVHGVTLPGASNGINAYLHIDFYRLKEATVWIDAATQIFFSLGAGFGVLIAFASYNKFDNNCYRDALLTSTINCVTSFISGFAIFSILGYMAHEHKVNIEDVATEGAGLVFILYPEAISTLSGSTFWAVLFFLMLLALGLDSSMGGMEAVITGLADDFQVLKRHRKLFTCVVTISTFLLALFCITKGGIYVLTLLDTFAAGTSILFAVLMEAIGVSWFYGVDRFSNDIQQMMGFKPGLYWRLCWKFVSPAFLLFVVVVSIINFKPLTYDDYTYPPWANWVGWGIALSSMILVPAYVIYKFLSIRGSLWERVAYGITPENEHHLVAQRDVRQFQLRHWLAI
T1 sequence (Q61327 whole entry): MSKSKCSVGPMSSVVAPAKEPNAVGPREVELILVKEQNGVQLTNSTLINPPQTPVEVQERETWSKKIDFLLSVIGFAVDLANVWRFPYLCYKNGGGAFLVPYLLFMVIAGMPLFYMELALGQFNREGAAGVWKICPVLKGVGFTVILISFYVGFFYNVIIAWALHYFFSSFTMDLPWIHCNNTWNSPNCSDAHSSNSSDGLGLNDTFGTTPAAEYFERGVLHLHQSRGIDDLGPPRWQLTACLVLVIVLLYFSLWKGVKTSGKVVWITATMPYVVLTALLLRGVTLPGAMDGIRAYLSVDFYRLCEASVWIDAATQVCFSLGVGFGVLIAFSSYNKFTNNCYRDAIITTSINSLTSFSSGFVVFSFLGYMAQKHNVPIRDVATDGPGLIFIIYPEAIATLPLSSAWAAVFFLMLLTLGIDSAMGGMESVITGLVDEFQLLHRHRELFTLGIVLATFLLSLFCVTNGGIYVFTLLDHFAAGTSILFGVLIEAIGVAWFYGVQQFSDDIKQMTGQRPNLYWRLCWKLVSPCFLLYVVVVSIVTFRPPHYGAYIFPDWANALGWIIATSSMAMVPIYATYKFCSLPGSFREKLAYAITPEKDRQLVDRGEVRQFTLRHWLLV
mouse DAT, sequence (Q61327 whole entry): as above

| SMILES | ratio of IC50 values, cocaine methiodide / cocaine, mDAT ([1]; transfected HeLa cells) | IC50 ([1]; transfected HeLa cells, 60 nM [3H] substrate, mean ± SEM, 3 experiments, read-out: IC50, inhibition of dopamine uptake by mDAT) | effect on sodium channel currents (peak inward current) in DRG neurons ([2]; concentrations up to 3 mM, the highest tested, n = 4 cells, p>0.05, listed as CM) | ratio of IC50 values, cocaine methiodide / cocaine, mNET ([3]; transfected HeLa cells) | IC50 ([3]; transfected HeLa cells, 60 nM [3H] substrate, mean ± SEM, 3 experiments, read-out: IC50, inhibition of norepinephrine uptake by mNET) | ratio of IC50 values, cocaine methiodide / cocaine, mSERT ([4]; transfected HeLa cells) | IC50 ([4]; transfected HeLa cells, 60 nM [3H] substrate, mean ± SEM, 3 experiments, read-out: IC50, inhibition of serotonin uptake by mSERT) | ratio of IC50 values, cocaine methiodide / cocaine, striatal synaptosomes ([5]; dopamine uptake, mouse striatal synaptosomes) | IC50 ([5]; mouse striatum synaptosomes, 60 nM [3H]dopamine, 100 µM desipramine, mean ± SEM, 3 experiments, listed as CM, read-out: IC50, inhibition of dopamine uptake by striatal synaptosomes) | IC50 ([5]; mouse striatum synaptosomes, 60 nM [3H]dopamine, 100 µM desipramine, mean ± SEM, 3 experiments, read-out: IC50, inhibition of dopamine uptake by striatal synaptosomes) | IC50 [1] | sodium channel IC50 relative to those for the monoamine transporters ([2]; cocaine, DRG Na+ channels vs DAT, NET, SERT) | IC50 ([2]; n = 4 cells, listed as cocaine) | IC50 ([2]; n = 4 cells) | IC50 [3] | IC50 [4] | IC50 [5] | potency for blocking sodium channels [6] |
| --- | --- | --- | --- | --- | --- | --- | --- | --- | --- | --- | --- | --- | --- | --- | --- | --- | --- | --- |
| COC(=O)[C@H]1[C@@H](OC(=O)c2ccccc2)C[C@@H]2CC[C@H]1[N+]2(C)C.[I-] [Cocaine Methiodide, Cocaine methiodide] | 184 fold | 83.2 ± 2.1 µM | very little inhibition; also recorded: no observable effect; also recorded: little observable effect; also recorded: does not inhibit | 31 fold | 20.9 ± 3.1 µM | 123 fold | 84.3 ± 4.8 µM | 33 fold | 11.7 ± 5.1 µM | 11.5 ± 5.1 µM |  |  |  |  |  |  |  |  |
| COC(=O)[C@H]1[C@@H](OC(=O)c2ccccc2)C[C@@H]2CC[C@H]1N2C [Cocaine] |  |  |  |  |  |  |  |  |  |  | 0.45 ± 0.11 µM | roughly 100 fold | 85 µM | 84.8 ± 5.9 µM | 0.67 ± 0.09 µM | 0.68 ± 0.39 µM | 0.35 ± 0.11 µM | ≥ 50 µM |
